One may read the Ki as a dissociation constant, usually derived from enzyme kinetics or from competition with a known ligand. Low readings indicate higher affinity, high ones lower affinity.

The source of these data is patent US10385108B2, “Peptide analogs of alpha-melanocyte stimulating hormone” (Genzyme Corporation, priority 2008, dated 2019).

Where two headings read alike, the source gives them in different places.

One data set deals with B10.RIII mice. On the procedure:
Female B10.RIII were injected subcutaneously at two sites (between shoulder blades and in pelvic region) with a total of 200 μg interphotoreceptor binding protein peptide (IRBP) 161-180 (New England Peptide; Fitchburg, Mass.), respectively in 2 mg/ml complete Freund's adjuvant (CFA; Sigma, St. Louis, Mo.) with mycobacterium tuberculosis H37Ra (Difco, Detroit, Mich.).
The eyes of mice are dilated using one or two drops of Mydriacyl 1% (Alcon; Humacao, Puerto Rico) and rested in a darkened room for approximately 5 min. Mice are manually restrained and the retinas of both eyes are visualized using an indirect ophthalmoscope with a 78 diopter lens. The eyes are scored for inflammation using a progressive scoring system between 0-5. Score 0: Normal retina. Score 1: Vascular inflammation proximal to the optic nerve. Score 2: <5 inflammatory lesions confined to one quadrant of the eye. Score 3: >5 inflammatory lesions in more than one quadrant of the eye. Score 4: Inflammatory lesions are contiguous. Score 5: Retinal detachment. Whole eyes from mice were harvested and placed in PBS. The eyes were embedded in OCT media for frozen fixation. 5-μm sections were cut through the papillary-optic nerve plane and stained with hematoxylin and eosin.
Uveitis was induced in B10.RIII mice with an injection of IRBP 161-180 and CFA.
Current forms of therapy for uveitis include corticosteroids and immunosuppressive agents. […] Uveitis was induced in B10.RIII mice with IRBP161-180 and CFA injections. […] Mice were treated daily for 21 days.
EAU was induced in female B10.RIII mice with IRBP 161-180.
Uveitis was induced in B10.RIII mice with IRBP161-180 and CFA injections. […] Individual weights of the mice were recorded at 4 timepoints throughout the course of disease.
B10.RIII mice were injected with IRBP161-180 and CFA to induce uveitis. […] Treatment was initiated at peak time of disease when mice reached eye scores of 4 which included inflammatory lesions throughout the posterior segment of the eye and possible hemorrhaging.

The target in another data set is MC1R (Homo sapiens, UniProt Q01726). Kind of data set: Competitive binding with 125I-NDP-MSH, HEK293 membrane preparations, MC1R.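 Note: Read-out: receptor-bound radioligand retained by filtration and counted.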
Chain of MC1R (Q01726 whole entry): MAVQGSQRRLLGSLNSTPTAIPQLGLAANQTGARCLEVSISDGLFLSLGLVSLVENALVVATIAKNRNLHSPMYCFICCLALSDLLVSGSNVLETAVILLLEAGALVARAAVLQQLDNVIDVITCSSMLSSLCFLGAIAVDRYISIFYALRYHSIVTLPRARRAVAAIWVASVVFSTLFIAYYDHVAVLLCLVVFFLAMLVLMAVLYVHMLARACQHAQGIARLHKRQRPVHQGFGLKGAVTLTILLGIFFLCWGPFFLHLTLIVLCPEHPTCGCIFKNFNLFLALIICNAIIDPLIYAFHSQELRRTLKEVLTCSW
The nature of data set [1]: Serum levels after a single dose in mice. The class given is in vivo.
In the next data set the target is MC3R (Homo sapiens, UniProt P41968). Description: Competitive binding with 125I-NDP-MSH, HEK293 membrane preparations, MC3R.
Chain of MC3R (P41968 whole entry): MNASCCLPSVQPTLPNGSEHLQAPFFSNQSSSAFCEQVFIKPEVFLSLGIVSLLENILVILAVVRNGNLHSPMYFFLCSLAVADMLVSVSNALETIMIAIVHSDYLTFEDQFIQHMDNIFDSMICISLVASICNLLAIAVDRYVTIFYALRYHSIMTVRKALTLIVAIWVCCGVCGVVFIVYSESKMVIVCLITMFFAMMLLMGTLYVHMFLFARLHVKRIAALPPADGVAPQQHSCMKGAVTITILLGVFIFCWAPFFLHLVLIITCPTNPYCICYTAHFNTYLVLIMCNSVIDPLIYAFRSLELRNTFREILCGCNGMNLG

Description for MC1R: (§1) Binding analysis was done by Cerep laboratories (Paris, France) with coded samples.
(§2) The mixtures were filtered through 96-well GFC filters (Millipore, Billerica, Mass.), washed 3 times with binding buffer without BSA, dried and counted.
(§3) A competitive binding assay using a MCR panel including MCR 1, 3, 4, and 5 was performed.
Description for MC3R: as §1, §2, §3

Take `CSCC[C@@H](NC(=O)[C@@H](CCC(=O)O)NC(=O)[C@@H](Cc1c[nH]cn1)NC(=O)[C@@H](Cc1ccccc1)NC(=O)[C@@H](CCCNC(=N)N)NC(=O)[C@@H](Cc1c[nH]c2ccccc12)NC(=O)CNC(=O)[C@@H](CCCCN)NC(=O)[C@H]1CCCN1C(=O)[C@H](NC(C)=O)C(C)C)C(=O)N[C@H](CO)C(=O)N[C@H](Cc1ccc(O)cc1)C(=O)N[C@H](CO)C(N)=O` [RI-MSH, vpkGwrfhemsys]: the “uveitis course (in words)” value is “did not reduce or inhibit disease” in the data set with B10.RIII mice (3 μg/mouse i.p. daily from eye scores of 4), “rapidly ameliorated uveitis” with B10.RIII mice (10 μg/mouse i.p. daily from eye scores of 4) and “rapidly ameliorated uveitis” in the data set on B10.RIII mice (100 μg/mouse i.p. daily from eye scores of 4). In the data set with B10.RIII mice (100 μg/mouse i.p. daily for 13 days from eye scores 2-3, days 15, 21 and 23), the “mean clinical eye scores vs scrambled peptide (in words)” value is recorded as “significant reduction”. Further, the “mice with individual maximum eye scores ≤1” value with B10.RIII mice (100 μg/mouse i.p. daily, day 23 after disease induction) is 75%. Moreover, in the data set with B10.RIII mice (100 μg/mouse i.p., from eye score 1, data not shown), the “efficacy in uveitis, treatment at onset of disease (in words)” value was “had efficacy in uveitis”. Besides, in the data set with B10.RIII mice (100 μg/mouse i.v. daily from eye scores of 2), the “mean clinical eye scores vs PBS (in words)” value is given as “significant reduction of mean clinical eye scores”. Moreover, the “eye score in retina images (median of group)” value in the data set on B10.RIII mice (100 μg/mouse i.v. daily from late stage, day 13 after start of treatment) is 1. The “histological examination of the eyes (in words)” value in the data set on B10.RIII mice (100 μg/mouse i.v. daily, 10 days after start of treatment) is recorded as “reduced pathology in the eye”. Besides, the “mice with eye scores of 3 or greater” value with B10.RIII mice (100 μg/mouse i.v. daily, day 13 after start of treatment) was 2 of the 11. In the data set on B10.RIII mice (100 μg/mouse i.v. daily, day 16, four days after start of treatment), the “mice with a maximum eye score of 3 or greater” value is 0 of the 8. Moreover, the “affinity for MC1R lower than that of the native MSH peptide” value at MC1R came out at 11 fold. Moreover, the Ki was 4.6 ± 1.3 nM at MC1R (Ki MC1R, competition with 125I-NDP-MSH) and greater than 30 µM on MC3R. Besides, the “binding to MCR-1 (in words)” value at MC1R (MCR panel 1, 3, 4, 5) was “bind only to MCR-1”. In addition, the “serum half-life compared (in words)” value in data set [1] (mouse, in vivo, iv) is listed as “longer serum half-life than native α-MSH”. Besides, in data set [1] (single dose of 100 μg, mice, n=5), the “serum levels after a single dose (in words)” value is “measurable serum levels of RI-α-MSH after 24 hrs”. The “binding to MCR-3 (in words)” value on MC3R (MCR panel 1, 3, 4, 5) was “bind only to MCR-1”.
